Source: patent US20030162796A1, “Pharmaceutical composition for the treatment of disorders of non-human mammals” (priority 2001, published 2003)
Read-outs that look alike come from different tables or passages of the source.

Experiments:
SH1b cells = experiment: 3H-Thymidin proliferation assay, SH1b; assay type: cell-based, canine; settings: FIG. 3
Procedure: (§1) The ability of BIBX1382 to inhibit the proliferation of cells in culture was tested with a ^3H-Thymidin proliferation assays. This assay was performed with three tumor cell lines (SLU-1, SLU-4, SH1b) and a normal cell line (CRL-6234).
(§2) A pilot experiment with 500 to 12.000 cells per well in a 96-well plate in the presence of different concentrations of FCS (0% to 10%) was performed. After different proliferation times (24 h, 48 h, 72 h and 96 h), 10 μl ^3H-Thymidin (1:100 in PBS) were added, after incubation the plate was frozen, then thawed and the cells were harvested. The ^3H-Thymidin incorporation rate was determined. […] To determine a possible growth inhibitory effect of the inhibitor BIBX1382 on the cell lines, different concentrations (5 nM-10000 nM) of the inhibitor were used. Again ^3H-Thymidin was added, after incubation the plate was frozen, then thawed and the cells were harvested. The ^3H-Thymidin incorporation rate was determined in dependance of the concentration of inhibitor.
The ^3H-Thymidin proliferation assay was also done with the tumor cell line SH1b.

[1] = Plasma levels of BIBX1382 of the treated mice; assay type: in vivo, nude mice; settings: for concentration at 2 h / concentration at 6 h / concentration at 24 h: nude, mouse, plasma, oral, read-out: plasma level, mean; for concentration at 2 h: 2 h after last compound administration on day 46; for concentration at 6 h: 6 h after last compound administration on day 46; for concentration at 24 h: 24 h after last compound administration on day 46
Procedure: (§3) When tumors were established and had reached diameters of approximately 5 mm as measured with a calliper, mice were randomly distributed into groups of 10 animals so that each tumor size was equally represented in each treatment group. The time span between cell injection and randomisation/start of treatment was sixteen days. Starting ten days after randomisation, mice were treated once daily (at 24 hour intervals) with various doses of the test compound. Administration was intragastral using a gavage needle (Infusionskanule Olive A, Acufirm, No. 14 64 11-1). Therefore, the compound was suspended in 2.5% aqueous HP-beta-CD (hydroxy-propyl-beta-cyclodextrine)/1% aqueous Natrosol (hydroxyethylcellulose). Control mice received the vehicle only. The administration volume was 2.5 to 10 ml per kg mouse body weight. The solutions were proportioned and kept at −20° C.
(§4) The low dose group received 25 mg/kg/day (day 10-22) and 50 mg/kg/day (day 23-46) of BIBX1382; whereas the high dose group received 50 mg/kg/day (day 10-22), 70 mg/kg/day (day 23-30) and 100 mg/kg/day (day 31-46) of BIBX1382. The control group was treated with vehicle only.
With plasma levels of […] at 2 hours after oral compound administration a reduction of the growth rate to a T/C value of 62% was achieved.

SLU-4 cells = experiment: 3H-Thymidin proliferation assay, SLU-4; assay type: cell-based, canine; settings: inhibitor 5 nM-10000 nM
Procedure: as §1, §2

CRL-6234 cells = experiment: 3H-Thymidin proliferation assay, CRL-6234 (normal cell line); assay type: cell-based, canine
Procedure: as §1, §2

SLU-1 cells = experiment: 3H-Thymidin proliferation assay, SLU-1; assay type: cell-based, canine; settings: inhibitor 5 nM-10000 nM
Procedure: as §1, §2

SLU-1 tumors = experiment: Effect on tumor growth in nude mice (SLU-1 subcutaneous xenograft); assay type: in vivo
Procedure: The cell line SLU-1 was cultured as described in Example 2. For use in tumor experiments, cells were trypsinised, washed and suspended in PBS+5% FCS at 10^7 cells/ml. 2×10^6 SLU-1 cells were injected into 40 nude mice (5-10 week-old female Hsd:NMRI-nu/nu purchased from Harlan, The Netherlands for the in vivo experiment with BIBX1382.
as §3, §4
Tumors were measured three times a week (Monday, Wednesday and Friday) with a calliper. Volumes [in mm^3] were then calculated according to the formula (tumor volume=length*diameter^2*π/6). To monitor side effects of treatment, mice were inspected daily for abnormalities and weighed three times (Monday, Wednesday and Friday) a week.
Tumor volumes were expressed as mean absolute tumor volumes [in mm^3] and plotted over days of treatment.
The specific relative tumor volumes (T/C [%], i.e. the mean relative tumor volumes of groups of compound-treated tumors in % of the mean relative tumor volume of the vehicle-treated control tumors: T/C [%]=100*mean Vrel compound-treated/mean Vrel vehicle-treated) were determined on the day following the final day of treatment.
Experiments were usually terminated when vehicle control mice had to be killed because of large tumor sizes (1200 to 1700 mm^3).

CN1CCC(Nc2ncc3ncnc(Nc4ccc(F)c(Cl)c4)c3n2)CC1 [BIBX1382, 4-((3-chloro-4-fluoro-phenyl)amino)-6-(1-methyl-4-piperidinyl-amino)-pyrimido(5,4d)pyrimidine]
proliferation (3H-Thymidin incorporation) (SH1b cells): inhibited in its proliferation time | plasma level ([1]; 2 hours after oral compound administration, level giving T/C 38%): approximately 4000 mmol/l | concentration at 2 h ([1]; 50 mg/kg): 3.17 µM | concentration at 6 h ([1]; 50 mg/kg): 2.85 µM | concentration at 24 h ([1]; 50 mg/kg): 0.394 µM | concentration at 2 h ([1]; 100 mg/kg): 4.16 µM | concentration at 6 h ([1]; 100 mg/kg): 4.09 µM | concentration at 24 h ([1]; 100 mg/kg): 0.591 µM | proliferation rate (3H-Thymidin incorporation) (SLU-4 cells): not affected | effect on normal cell line at high concentrations (CRL-6234 cells; high concentrations): toxic effects at high concentrations | proliferation at lower concentration (CRL-6234 cells; lower concentration): not inhibited | proliferation rate (3H-Thymidin incorporation) (SLU-1 cells): inhibited in their proliferation rate | SLU-1 tumor growth (SLU-1 tumors; all tested doses, oral once daily, FIGS. 4 and 5): influenced SLU-1 tumor growth at all tested doses | T/C values compared to the vehicle control group (standard T-test) (SLU-1 tumors; both dose groups (low and high)): significantly lower | T/C (SLU-1 tumors; high dose group (Group 2), 50 → 70 → 100 mg/kg/day, after 100 mg/kg/day (day 31-46), day 47): 38% | T/C (SLU-1 tumors; high dose group after 50 mg/kg/day (day 10-22)): 52% | T/C (SLU-1 tumors; high dose group after 70 mg/kg/day (day 23-30)): 53% | increase in tumor size at maximum (SLU-1 tumors; high dose group, 50 mg/kg/day, day 10-22, all ten tumors): 5-6 fold | increase in tumor size (SLU-1 tumors; high dose group, 70 mg/kg/day, day 23-30): about 2 fold | increase in tumor size (SLU-1 tumors; high dose group, 100 mg/kg/day, day 31-46): 1.5-1.9 fold | increase in tumor size on average (SLU-1 tumors; high dose group, whole period of treatment): 20 fold | T/C (SLU-1 tumors; low dose group (Group 1), 25 → 50 mg/kg/day, after 50 mg/kg/day (day 23-46), day 47): 62% | T/C (SLU-1 tumors; low dose group after 25 mg/kg/day (day 10-22)): 78% | increase in tumor size (SLU-1 tumors; low dose group, 25 mg/kg/day, day 10-22, 9 of 10 tumors): 8 fold | tumor volume change (SLU-1 tumors; low dose group, 25 mg/kg/day, day 10-22, one of 10 tumors): did not change at all | increase in tumor size (SLU-1 tumors; low dose group, 50 mg/kg/day, day 23-46, all 10 tumors): 3-6 fold | increase in tumor size on average (SLU-1 tumors; low dose group, whole period of treatment (day 10-46)): 35 fold
